Assay results as given in PMC13629022 (ACS Omega, 2026).
Entries after “also recorded” stand apart in the source; their conditions may differ. Read-outs that look alike come from different tables or passages of the source.

Assays:
[1] = test system: murine macrophage-like J774.A1 cells; test: Cytotoxicity to J774.A1 macrophages (Alamar Blue); conditions: concentrations up to 500 μM (compounds 7 and 13 up to 250 μM)
Method: Cells were incubated for 72 h at 37 °C in a 5% CO2 atmosphere, as previously described. They were then stimulated with LPS (500 ng/mL, Sigma Chemical Co., St. Louis, MO, USA) and IFN-γ (5 ng/mL, Sigma). Compounds were added to the medium at eight concentrations ranging from 1.9 to 500 μM, in triplicate, and incubated for 24 h. Subsequently, 20 μL per well of Alamar Blue (Invitrogen, Carlsbad, CA, USA) was added to the plates for 6 h. Compounds 7, 11, and 13 were evaluated only up to a maximum concentration of 250 μM due to the limited amount of purified material available for testing. Colorimetric readings were performed at 570 and 600 nm. Triton X-100 (5%) was used as the positive control.

[2] = test system: nitric oxide production by stimulated J774.A1 macrophages; test: Nitric oxide production by LPS + IFN-γ stimulated J774.A1 macrophages (nitrite, Griess method); type: cell-based, murine; conditions: Mus musculus
Method: (§1) For cytokine and nitric oxide evaluations, J774.A1 cells were seeded in 96-well tissue culture plates at 2 × 10^5 cells per well in DMEM supplemented with 10% FBS and 50 μg/mL gentamicin and incubated for 2 h at 37 °C in a 5% CO2 atmosphere, as previously described. Cells were then stimulated with LPS (500 ng/mL) and IFN-γ (5 ng/mL) in the presence of either the test compounds at different concentrations (3.9–250 μM), the medium alone, or dexamethasone (40 μM, reference drug) and further incubated at 37 °C. Cell-free supernatants were collected 24 h after incubation for IL-1β, IL-6, and nitrite quantification. Cytokine concentrations in the supernatants of J774.A1 cultures were determined by enzyme-linked immunosorbent assay (ELISA) using the DuoSet kit (R&D Systems, Minneapolis, MN, USA), according to the manufacturer’s instructions. Results were expressed as picograms per milliliter (pg/mL) of IL-1β or IL-6. Quantification of nitrite as an indicator of nitric oxide production was performed using the Griess method. Three independent experiments were performed. −

[3] = test system: IL-1β production by stimulated J774.A1 macrophages; test: IL-1β production by LPS + IFN-γ stimulated J774.A1 macrophages (ELISA); type: cell-based, murine; conditions: compounds at 62.5 μM, Dexa 40 μM, 24 h, vs stimulated untreated cells, p < 0.05
Method: as §1, with “Cells” for “For cytokine and nitric oxide evaluations, J774.A1 cells were seeded in 96-well tissue culture plates at 2 × 10^5 cells per well in DMEM supplemented with 10% FBS and 50 μg/mL gentamicin and incubated for 2 h at 37 °C in a 5% CO2 atmosphere, as previously described. Cells”

[4] = test system: IL-6 production by stimulated J774.A1 macrophages; test: IL-6 production by LPS + IFN-γ stimulated J774.A1 macrophages (ELISA); type: cell-based, murine; conditions: compounds at 62.5 μM, Dexa 40 μM, 24 h, vs stimulated untreated cells, p < 0.05
Method: as §1, with “Cells” for “For cytokine and nitric oxide evaluations, J774.A1 cells were seeded in 96-well tissue culture plates at 2 × 10^5 cells per well in DMEM supplemented with 10% FBS and 50 μg/mL gentamicin and incubated for 2 h at 37 °C in a 5% CO2 atmosphere, as previously described. Cells”

[5] = J774.A1, 24 h, read-out: IC50, half maximal inhibitory concentration, NO production, J774.A1 macrophages stimulated with LPS (500 ng/mL) + IFN-γ (5 ng/mL), 24 h, nitrite by Griess
[6] = J774.A1, 24 h, read-out: efficacy: maximum effect (% of the maximum possible effect), inhibition of NO production, J774.A1 macrophages stimulated with LPS + IFN-γ, 24 h
[7] = J774.A1, read-out: IC50 (in Figure 8 panels), nitric oxide production, Figure 8, no unit in the boxes, μM only in axis labels, LPS + IFN-γ stimulated J774.A1

COC1CC(OC2CCC3(C)C(CCC4(O)C3CC(OC(=O)C=Cc3ccccc3)C3(C)C(O)(C(C)OC(=O)c5cccnc5)CCC43O)C2)OC(C)C1OC1CC(OC)C(OC2OC(C)C(O)C(OC)C2O)C(C)O1 [Compound 2, 12-O-cinnamoyl-20-O-nicotinoyl-(20R)-5,6-dihydrosarcostin-3-O-β-D-6-deoxy-3-O-methyl-allopyranosyl-(1 → 4)-β-D-oleandropyranosyl-(1 → 4)-β-D-cymaropyranoside]
cytotoxic effects in J774 macrophages (in words) [1]: did not induce cytotoxic effects | IC50 [2, 5]: 32.1 µM | Emax [2, 6]: > 70% | production of IL-1β (in words) [3]: significant reduction; also recorded: comparable to those of Dexa | production of IL-6 (in words) [4]: comparable to those of Dexa

COC1CC(OC2CCC3(C)C(CCC4(O)C3CC(OC(=O)C=Cc3ccccc3)C3(C)C(C(C)O)CCC43O)C2)OC(C)C1OC1CC(OC)C(OC2OC(C)C(O)C(OC)C2O)C(C)O1 [Compound 15, 12-O-cinnamoyl-(20S)-5,6,17-trihydrosarcostin-3-O-β-D-6-deoxy-3-O-methyl-allopyranosyl-(1 → 4)-β-D-oleandropyranosyl-(1 → 4)-β-D-cymaropyranoside]
cytotoxic effects in J774 macrophages (in words) [1]: most cytotoxic | IC50 [2, 5]: 33.7 µM | Emax [2, 6]: 62.9% | IC50 [2, 7]: 33.8 µM | production of IL-1β (in words) [3]: significant reduction

COC1CC(OC2C(O)CC(OC3CCC4(C)C(CCC5(O)C4CC(OC(=O)C=Cc4ccccc4)C4(C)C(C(C)O)CCC54O)C3)OC2C)OC(C)C1OC1OC(C)C(O)C(OC)C1O [Compound 12, 12-O-cinnamoyl-(20S)-5,6,17-trihydrosarcostin-3-O-β-D-6-deoxy-3-O-methyl-allopyranosyl-(1 → 4)-β-D-oleandropyranosyl-(1 → 4)-β-D-digitoxopyranoside]
IC50 [2, 5]: > 100 µM | Emax [2, 6]: 62% | production of IL-1β (in words) [3]: did not reduce

COC1CC(OC2CCC3(C)C(=CCC4(O)C3CC(OC(=O)C=Cc3ccccc3)C3(C)C(O)(C(C)OC(=O)c5cccnc5)CCC43O)C2)OC(C)C1OC1CC(OC)C(OC2OC(C)C(O)C(OC)C2O)C(C)O1 [Compound 1, 12-O-cinnamoyl-20-O-nicotinoyl-(20R)-sarcostin-3-O-β-D-6-deoxy-3-O-methyl-allopyranosyl-(1 → 4)-β-D-oleandropyranosyl-(1 → 4)-β-D-cymaropyranoside]
cytotoxic effects in J774 macrophages (in words) [1]: did not induce cytotoxic effects | IC50 [2, 5]: 24.5 µM | Emax [2, 6]: > 70% | production of IL-1β (in words) [3]: significant reduction; also recorded: comparable to those of Dexa | production of IL-6 (in words) [4]: comparable to those of Dexa

COC1CC(OC2C(C)OC(OC3CCC4(C)C(CCC5(O)C4CC(OC(=O)C=Cc4ccccc4)C4(C)C(C(C)O)CCC54O)C3)CC2OC(C)=O)OC(C)C1OC1OC(C)C(OC2OC(CO)C(OC3OC(CO)C(O)C(O)C3O)C(O)C2O)C(OC)C1O [Compound 7, 12-O-cinnamoyl-(20S)-5,6,17-trihydrosarcostin-3-O-β-D-glucopyranosyl-(1 → 4)-β-D-glucopyranosyl-(1 → 4)-β-D-6-deoxy-3-O-methyl-allopyranosyl-(1 → 4)-β-D-oleandropyranosyl-(1 → 4)-β-D-3′-O-acetyl-cymaropyranoside]
cytotoxic effects in J774 macrophages (in words) [1]: did not exhibit cytotoxicity at the concentrations tested | IC50 [2, 5]: > 100 µM | Emax [2, 6]: < 50% | production of IL-1β (in words) [3]: did not reduce

COC1CC(OC2CCC3(C)C(=CCC4(O)C3CC(OC(=O)C=Cc3ccccc3)C3(C)C(C(C)O)CCC43O)C2)OC(C)C1OC1CC(OC)C(OC2OC(C)C(O)C(OC)C2O)C(C)O1 [Compound 11, 12-O-cinnamoyl-(20S)-17-hydrosarcostin-3-O-β-D-6-deoxy-3-O-methyl-allopyranosyl-(1 → 4)-β-D-oleandropyranosyl-(1 → 4)-β-D-cymaropyranoside]
cytotoxic effects in J774 macrophages (in words) [1]: most cytotoxic | IC50 [2, 5]: 47.3 µM | Emax [2, 6]: 51.8% | IC50 [2, 7]: 47.3 µM | production of IL-1β (in words) [3]: significant reduction

COC1CC(OC2CCC3(C)C(CCC4(O)C3CC(OC(=O)C=Cc3ccccc3)C3(C)C(C(C)O)CCC43O)C2)OC(C)C1OC1CC(OC)C(OC2OC(C)C(OC3OC(CO)C(OC4OC(CO)C(O)C(O)C4O)C(O)C3O)C(OC)C2O)C(C)O1 [Compound 6, 12-O-cinnamoyl-(20S)-5,6,17-trihydrosarcostin-3-O-β-D-glucopyranosyl-(1 → 4)-β-D glucopyranosyl-(1 → 4)-β-D-6-deoxy-3-O-methyl-allopyranosyl-(1 → 4)-β-D oleandropyranosyl-(1 → 4)-β-D-cymaropyranoside]
cytotoxic effects in J774 macrophages (in words) [1]: did not induce cytotoxic effects | Emax [2, 6]: < 50% | production of IL-1β (in words) [3]: did not reduce

COC1CC(OC2C(C)OC(OC3CCC4(C)C(CCC5(O)C4CC(OC(C)=O)C4(C)C(C(C)OC(=O)c6ccccc6)CCC54O)C3)CC2OC(C)=O)OC(C)C1OC1OC(C)C(O)C(OC)C1O [Compound 17, 12-O-acetyl-20-O-benzoyl-(20R)-5,6,17-trihydrosarcostin-3-O-β-D-6-deoxy-3-O-methyl-allopyranosyl-(1 → 4)-β-D-oleandropyranosyl-(1 → 4)-β-D-3′-O-acetyl-cymaropyranoside]
cytotoxic effects in J774 macrophages (in words) [1]: only mild cytotoxicity at the highest concentrations | IC50 [2, 5]: 46.3 µM | Emax [2, 6]: < 50% | IC50 [2, 7]: 46.3 µM | production of IL-1β (in words) [3]: significant reduction

COC1CC(OC2CCC3(C)C(CCC4(O)C3CC(OC(C)=O)C3(C)C(C(C)OC(=O)c5ccccc5)CCC43O)C2)OC(C)C1OC1CC(OC)C(OC2OC(C)C(O)C(OC)C2O)C(C)O1 [Compound 18, 12-O-acetyl-20-O-benzoyl-(20R)-5,6,17-trihydrosarcostin-3-O-β-D-6-deoxy-3-O-methyl-allopyranosyl-(1 → 4)-β-D-oleandropyranosyl-(1 → 4)-β-D-cymaropyranoside]
IC50 [2, 5]: 66.2 µM | Emax [2, 6]: < 50% | IC50 [2, 7]: 66.2 µM | production of IL-1β (in words) [3]: significant reduction

COC1CC(OC2C(C)OC(OC3CCC4(C)C(CCC5(O)C4CC(OC(=O)C=Cc4ccccc4)C4(C)C(C(C)O)CCC54O)C3)CC2OC(C)=O)OC(C)C1OC1OC(C)C(O)C(OC)C1O [Compound 13, 12-O-cinnamoyl-(20S)-5,6,17-trihydrosarcostin-3-O-β-D-6-deoxy-3-O-methyl-allopyranosyl-(1 → 4)-β-D-oleandropyranosyl-(1 → 4)-β-D-3′-O-acetyl-cymaropyranoside]
cytotoxic effects in J774 macrophages (in words) [1]: did not exhibit cytotoxicity at the concentrations tested | IC50 [2, 5]: 42.4 µM | Emax [2, 6]: 59.3% | IC50 [2, 7]: 42.4 µM | production of IL-1β (in words) [3]: significant reduction

C[C@@H]1C[C@H]2[C@@H]3CCC4=CC(=O)C=C[C@]4(C)[C@@]3(F)[C@@H](O)C[C@]2(C)[C@@]1(O)C(=O)CO [Dexa, dexamethasone, reference compound]
IC50 ([2]; J774.A1, 24 h, J774.A1 macrophages stimulated with LPS (500 ng/mL) + IFN-γ (5 ng/mL), 24 h, nitrite by Griess, read-out: IC50, half maximal inhibitory concentration, NO production): 4.8 µM | Emax ([2]; J774.A1, 24 h, J774.A1 macrophages stimulated with LPS + IFN-γ, 24 h, read-out: efficacy: maximum effect (% of the maximum possible effect), inhibition of NO production): 51.6%
